The text below walks through data of ChEMBL document CHEMBL5532665 (J Med Chem, 2024).

The Emax is the greatest response seen or fitted, relative to the assay's reference. By ED50 is commonly meant the midpoint of the dose-response relation. Low values mean greater potency, high ones weaker potency. One may read the EC50 as the concentration at which the effect is half-maximal. Broadly, the half-life is the time in which the quantity being followed falls by half.

Active and inactive are the calls of the source. No cut-off for these calls is given here.

Data set [1] has as its target T1, Kappa-type opioid receptor (Homo sapiens, UniProt P41145). As to the kind of experiment: Agonist activity at human KOR expressed in CHO-K1 cells co-expressing G-alpha15 upto 100 uM by calcium mobilization assay. It counts as functional, cell-based. A general note: Calcium assays in cells follow changes in intracellular calcium, usually with a dye or a luminescent sensor.

Data set [2] concerns Mus musculus. As to the kind of experiment: Antinociceptive activity in Kunming mouse model at 132.2 nmol/kg, sc pretreated with NALM subcutaneously followed by compound administration by tail-flick test. It counts as functional, organism-based.
For data set [3], the target named is T2, Delta-type opioid receptor (Homo sapiens, UniProt P41143). As to the kind of experiment: Agonist activity at human DOR expressed in CHO-K1 cells co-expressing G-alpha15 by calcium mobilization assay relative to control. Format: functional, cell-based. Conditions: filed as agonist.
The target of data set [4] is T3, Mu-type opioid receptor (Homo sapiens, UniProt P35372). Briefly: Agonist activity at human MOR expressed in CHO-K1 cells co-expressing G-alpha15 by calcium mobilization assay relative to control. It counts as functional, cell-based. Conditions: filed as agonist.
Data set [5] deals with Mus musculus. As to the kind of experiment: Antinociceptive activity in Kunming mouse model at 132.2 nmol/kg, sc in presence of NTI by tail-flick test. Format: functional, organism-based.
In data set [6] the test system is Mus musculus. As to the kind of experiment: Antinociceptive activity in Kunming mouse model at 132.2 nmol/kg, sc in presence of nor-BNI by tail-flick test. It counts as functional, organism-based. Background: Hot-plate and tail-flick tests time the reaction to a heat stimulus.
Data set [7] concerns Mus musculus. Briefly: Antinociceptive activity in Kunming mouse model at 132.2 nmol/kg, sc pretreated with NALM intracerebroventricularly followed by compound administration by tail-flick test. It counts as functional, organism-based.
Data set [8] deals with Mus musculus. Briefly: Antinociceptive activity in Kunming mouse model at 132.2 nmol/kg, sc in presence of beta-FNA by tail-flick test. It counts as functional, organism-based.
Data set [9] has as its system Mus musculus. As to the kind of experiment: Antinociceptive activity in Kunming mouse model at 136.2 nmol/kg, sc in presence of beta-FNA by tail-flick test. Format: functional, organism-based.
Data set [10] has as its system Mus musculus. As to the kind of experiment: Antinociceptive activity in Kunming mouse model at 136.2 nmol/kg, sc in presence of nor-BNI by tail-flick test. It counts as functional, organism-based.
The subject of data set [11] is Mus musculus. As to the kind of experiment: Antinociceptive activity in Kunming mouse model at 136.2 nmol/kg, sc in presence of NTI by tail-flick test. Format: functional, organism-based.
In data set [12] the test system is Mus musculus. Briefly: Antinociceptive activity in Kunming mouse model at 136.2 nmol/kg, sc pretreated with NALM subcutaneously followed by compound administration by tail-flick test. Format: functional, organism-based.
Data set [13] addresses T1, Kappa-type opioid receptor. As to the kind of experiment: Agonist activity at human KOR expressed in CHO-K1 cells co-expressing G-alpha15 by calcium mobilization assay relative to control. It counts as functional, cell-based. The conditions noted are these: filed as agonist.
Data set [14] has as its system Mus musculus. As to the kind of experiment: Antinociceptive activity in Kunming mouse model at 136.2 nmol/kg, sc pretreated with NALM intracerebroventricularly followed by compound administration by tail-flick test. Format: functional, organism-based.
For data set [15], the system named is Mus musculus. Briefly: Rewarding affect in Kunming mouse model at 139 nmol/kg, sc pre-exposed to place conditioning for 3 days followed by compound administration and further re-exposed to place conditioning measured on day 5 by unbiased CPP method. Format: functional, organism-based. The conditions noted are these: time 2.0 day.
Data set [16] deals with Mus musculus. As to the kind of experiment: Antinociceptive activity in Kunming mouse model at 13.9 nmol/kg, sc in presence of beta-FNA by tail-flick test. Format: functional, organism-based.
The subject of data set [17] is Mus musculus. As to the kind of experiment: Antinociceptive activity in Kunming mouse model administered subcutaneously by tail-flick test. Format: functional. The conditions noted are these: route sc.
The subject of data set [18] is Mus musculus. Briefly: Antinociceptive activity in Kunming mouse model at 13.9 nmol/kg, sc pretreated with NALM intracerebroventricularly followed by compound administration by tail-flick test. Format: functional, organism-based.
Data set [19] deals with T3, Mu-type opioid receptor. Briefly: Agonist activity at human MOR expressed in CHO-K1 cells co-expressing G-alpha15 by calcium mobilization assay. Format: functional, cell-based. Conditions: cho-k1.
The subject of data set [20] is Mus musculus. As to the kind of experiment: Antinociceptive activity in Kunming mouse model assessed as latency of tail withdrawal at 13.9 nmol/kg, sc measured for 60 mins by tail-flick test relative to control. It counts as functional. Conditions: 1 h.
In data set [21] the test system is Mus musculus. Briefly: Antinociceptive activity in Kunming mouse model administered subcutaneously measured for 5 to 15 mins by acetic acid-induced writhing test. Format: functional. Conditions: route sc, time 5-15 min. (In general: An intraperitoneal irritant provokes the stretching counted in writhing tests.)
Data set [22] has as its target T1, Kappa-type opioid receptor. As to the kind of experiment: Agonist activity at human KOR expressed in CHO-K1 cells co-expressing G-alpha15 by calcium mobilization assay. Format: functional, cell-based. Conditions: cho-k1.
Data set [23] deals with Mus musculus. As to the kind of experiment: Antinociceptive activity in Kunming mouse model at 13.9 nmol/kg, sc in presence of nor-BNI by tail-flick test. Format: functional, organism-based.
Data set [24] concerns Mus musculus. Briefly: Antinociceptive activity in Kunming mouse model assessed as increase in analgesic effect at 0.14 to 13.9 nmol/kg, sc measured for 180 to 360 mins by tail-flick test. The conditions noted are these: dose 0.14-13.9 nmol/kg, time 180-360 min. Format: functional, organism-based.
Data set [25] has as its system Mus musculus. Briefly: Antinociceptive activity in Kunming mouse model at 13.9 nmol/kg, sc in presence of NTI by tail-flick test. Format: functional, organism-based.
The target of data set [26] is T2, Delta-type opioid receptor. As to the kind of experiment: Agonist activity at human DOR expressed in CHO-K1 cells co-expressing G-alpha15 by calcium mobilization assay. Format: functional, cell-based. Conditions: cho-k1.
The subject of data set [27] is Mus musculus. Briefly: Antinociceptive activity in Kunming mouse model assessed as latency of tail withdrawal at 13.9 nmol/kg, sc measured for 30 mins by tail-flick test relative to control. It counts as functional. Conditions: 0.5 h.
For data set [28], the system named is Mus musculus. As to the kind of experiment: Induction of physical dependence in Kunming mouse model assessed as jumping behavior at 5.5 to 275 nmol/kg, sc administered as 7 escalating doses with 8 hr-intervals in-between followed by Nal administration post-2 hrs of last compound dose and further measured for 30 mins by withdrawal assay. It counts as functional, organism-based. Conditions: dose 5.5-275 nmol/kg, time 50.5 hrs.

Data set [29] deals with Mus musculus. Briefly: Antinociceptive activity in Kunming mouse model at 13.9 nmol/kg, sc pretreated with NALM subcutaneously followed by compound administration by tail-flick test. It counts as functional, organism-based.
Data set [30] concerns Mus musculus. As to the kind of experiment: Antinociceptive activity in Kunming mouse model assessed as latency of tail withdrawal at 13.9 nmol/kg, sc measured for 10 mins by tail-flick test relative to control. It counts as functional.
Data set [31] is described as follows: Stability in mouse plasma assessed as half life at 0.01 mol/L measured for 72 hrs by RP-HPLC analysis. It counts as ADME, cell-free.
The test system of data set [32] is Mus musculus. As to the kind of experiment: Antinociceptive activity in Kunming mouse model assessed as latency of tail withdrawal at 13.9 nmol/kg, sc measured for 120 mins by tail-flick test relative to control. Format: functional. The conditions noted are these: 2 h.
Data set [33] relates to Mus musculus. As to the kind of experiment: Inhibition of gastrointestinal motility in fasted Kunming mouse model treated subcutaneously for 15 mins followed by charcoal-gum arabic treatment measured after 30 mins. It counts as functional. The conditions noted are these: 0.75 h, route sc, time 45 min.
In data set [34] the test system is Mus musculus. As to the kind of experiment: Antinociceptive activity in Kunming mouse model administered orally by tail-flick test. It counts as functional. Conditions: route po.

T2 sequence (P41143 whole entry): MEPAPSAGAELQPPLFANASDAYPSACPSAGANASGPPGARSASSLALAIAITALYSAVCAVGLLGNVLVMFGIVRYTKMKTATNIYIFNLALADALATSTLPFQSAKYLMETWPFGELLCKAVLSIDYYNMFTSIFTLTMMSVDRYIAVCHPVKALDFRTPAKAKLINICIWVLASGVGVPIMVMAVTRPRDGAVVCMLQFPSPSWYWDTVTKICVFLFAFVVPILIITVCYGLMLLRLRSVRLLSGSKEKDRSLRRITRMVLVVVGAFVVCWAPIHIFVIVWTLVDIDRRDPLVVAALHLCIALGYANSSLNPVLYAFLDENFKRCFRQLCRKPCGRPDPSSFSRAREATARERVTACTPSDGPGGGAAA
T3 sequence (P35372 whole entry): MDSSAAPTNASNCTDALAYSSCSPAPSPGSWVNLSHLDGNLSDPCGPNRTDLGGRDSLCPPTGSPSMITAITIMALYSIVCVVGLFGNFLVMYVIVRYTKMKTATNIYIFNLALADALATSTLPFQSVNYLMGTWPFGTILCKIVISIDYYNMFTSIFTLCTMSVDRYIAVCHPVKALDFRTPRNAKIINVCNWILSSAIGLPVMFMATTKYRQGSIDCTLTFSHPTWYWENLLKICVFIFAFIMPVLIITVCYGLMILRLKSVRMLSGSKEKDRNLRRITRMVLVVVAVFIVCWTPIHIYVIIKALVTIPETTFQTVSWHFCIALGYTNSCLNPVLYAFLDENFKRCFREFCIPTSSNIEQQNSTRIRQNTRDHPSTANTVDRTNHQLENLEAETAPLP
T1 sequence (P41145 whole entry): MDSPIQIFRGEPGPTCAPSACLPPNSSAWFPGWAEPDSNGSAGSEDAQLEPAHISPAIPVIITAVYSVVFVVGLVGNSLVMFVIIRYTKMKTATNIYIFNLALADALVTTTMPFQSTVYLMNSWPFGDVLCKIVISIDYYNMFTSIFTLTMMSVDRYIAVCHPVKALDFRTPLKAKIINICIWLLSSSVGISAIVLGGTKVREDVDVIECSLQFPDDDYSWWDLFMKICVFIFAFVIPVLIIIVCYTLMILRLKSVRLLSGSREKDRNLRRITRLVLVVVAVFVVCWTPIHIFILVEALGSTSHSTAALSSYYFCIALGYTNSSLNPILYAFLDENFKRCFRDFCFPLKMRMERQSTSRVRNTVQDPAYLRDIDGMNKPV

Consider `NC(=O)[C@@H]1CCCN1C(=O)[C@H]1CC(=O)NCCCC[C@@H](NC(=O)[C@@H](N)Cc2ccc(O)cc2)C(=O)NCC(=O)N[C@@H](Cc2ccc3ccccc3c2)C(=O)N1`, for which the outcome (in [1]; in the data set on Mus musculus [2]; in the data set with Mus musculus [8]) was inactive. In addition, the Emax in data set [3] worked out at 110%; at Mu-type opioid receptor [4], 98.6%. Besides, the outcome in the data set on Mus musculus [5], with Mus musculus [6] and in the data set on Mus musculus [7] was Active.
For `CC1(C)NC(=O)[C@H](NC(=O)[C@@H](N)Cc2ccc(O)cc2)CCCCNC(=O)C[C@H](C(=O)N2CCC[C@H]2C(N)=O)NC(=O)[C@H](Cc2ccccc2)NC1=O`, the outcome in the data set on Mus musculus [9], with Mus musculus [10] and in the data set on Mus musculus [12] was inactive. The outcome in the data set on Mus musculus [11] and in the data set on Mus musculus [14] was Active. For the same compound, the Emax in data set [13] was found to be 89.2%; in data set [3], 103%; on Mu-type opioid receptor [4] it was 100%.
Turning to `NC(=O)[C@@H]1CCCCN1C(=O)[C@H]1CC(=O)NCCCC[C@@H](NC(=O)[C@@H](N)Cc2ccc(O)cc2)C(=O)NCC(=O)N[C@@H](Cc2ccccc2)C(=O)N1`, the result in the data set with Mus musculus [15], with Mus musculus [16], with Mus musculus [18], in the data set on Mus musculus [23] and in the data set with Mus musculus [28] was inactive. Further, the ED50 turned out to be 0.0007 µmol/kg with Mus musculus [17] and 0.0055 µmol/kg with Mus musculus [21]. For the same compound, the EC50 is 0.9 nM at Mu-type opioid receptor [19], 214 nM in [22] and 0.2 nM in data set [26]. In addition, the MPE in the data set on Mus musculus [20] was determined as 86.9%; in the data set with Mus musculus [27], 91.2%; in the data set on Mus musculus [30], 73.1%; in the data set on Mus musculus [32] it was 56.6%. The result in the data set on Mus musculus [24], with Mus musculus [25] and in the data set with Mus musculus [29] was Active. The results for the Emax (in data set [13]; in [3]; on Mu-type opioid receptor [4]) were 99.5%, 101% and 107%, respectively. For the same compound, the half-life at 0.01 mol/L in data set [31] is 18.5 days.
With `CN1C(=O)CNC(=O)[C@H](NC(=O)[C@@H](N)Cc2ccc(O)cc2)CCCCNC(=O)C[C@@H](C(=O)N2CCC[C@@H]2C(N)=O)NC(=O)[C@@H]1Cc1ccccc1`, the ED50 in the data set with Mus musculus [33] turned out to be 0.0326 µmol/kg; in the data set on Mus musculus [17], 0.0006 µmol/kg; in the data set on Mus musculus [21], 0.0025 µmol/kg; in the data set on Mus musculus [34], 0.0003 µmol/kg. Besides, the MPE was found to be 93.9% in the data set with Mus musculus [20], 93.8% in the data set on Mus musculus [27], 81.9% in the data set on Mus musculus [30] and 75.3% in the data set on Mus musculus [32].
